According to ChEMBL document CHEMBL1143319, “Structure-based virtual screening for novel inhibitors of the sarco/endoplasmic reticulum calcium ATPase and their experimental evaluation” (Bioorg Med Chem, 2009):

Assay: Inhibition of rabbit hind leg tissue microsomes ATPase activity of SERCA assessed as ATP hydrolysis
Set-up: species or system Oryctolagus cuniculus

| Structure (SMILES) | IC50 [µM] |
| --- | --- |
| CC(C)CCCCCCc1ccc(O)cc1 | 17.2 |
| Oc1ccc2ccccc2c1Cc1cccc2ccccc12 | 27.3 |
| CC(c1ccccc1)c1cc(C(C)(C)C)cc(C(C)(C)C)c1O (centres undefined) | 33.8 |
| COc1ccc(C(C)c2cc(C(C)(C)C)cc(C(C)(C)C)c2O)cc1 (centres undefined) | 35.3 |
| Oc1ccc2ccccc2c1Cc1c(O)ccc2ccccc12 | 15 |
| COc1ccc(C(C)c2cc(C(C)(C)C)c(O)c(C(C)(C)C)c2)cc1 (centres undefined) | 45.4 |
| CC(C)(C)c1ccc(O)c(C(c2cc(C(C)(C)C)ccc2O)c2cc(C(C)(C)C)ccc2O)c1 | 21.3 |
| Oc1cc(Cc2ccccc2)c(O)cc1Cc1ccccc1 | 9.4 |
| CC(c1ccccc1)(c1ccccc1)c1ccc(O)cc1 | 49.7 |
| Cc1cc(C(C)(C)c2cc(C)c(O)c(C)c2)cc(C)c1O | 19.5 |
| CC(=O)C1=C(O)[C@@H]2[C@H]3c4c[nH]c5cccc(c45)C[C@H]3C(C)(C)N2C1=O [CYCLOPIAZONIC ACID] | 0.12 |

The remaining lines, values ahead:

| IC50 [µM] | Structure (SMILES) |
| --- | --- |
| 39.3 | CCC(C)(c1ccc(O)c(C)c1)c1ccc(O)c(C)c1 |
| 11.5 | Oc1ccc(O)c(C2CCCCCCC2)c1 |
| 0.4 | CC(C)(C)c1cc(O)c(C(C)(C)C)cc1O |
| 11.8 | CC(C)(C)c1ccc(O)c(Cc2cc(C(C)(C)C)ccc2O)c1 |
| 28.3 | CC(c1ccc(O)cc1)C(C)c1ccc(O)cc1 (centres undefined) |
| 18.8 | CC(C)Cc1ccc(CC(C)C)c(O)c1 |
| 23.8 | Oc1cc(Cc2ccccc2)c(Cc2ccccc2)cc1O |
| 28.1 | CC(C)(C)c1cc2c(cc1O)CCC2 |
